{"source": "patent US11065296B2", "about": "“Antimicrobial peptide, its analog and use” (City University of Hong Kong, priority 2018, dated 2021)", "key": {"[1]": {"system": "Staphylococcus aureus ATCC 6538", "assay_type": "cell-based", "experimental": "(§5) MIC denotes the lowest concentration of an antimicrobial agent that can inhibit the growth of bacteria after overnight incubation.\n(§6) Bacteria were grown in their respective media (Table 2 above) overnight at 37° C. or room temperature with constant shaking and then diluted to 10^6 CFU/ml in their respective medium. Stock solutions of peptides at 0.68 mM were prepared in distilled water. Bacteria and peptide were incubated (50 μl: 50 μl) to make the final peptide concentrations (0.68, 3.4, 6.8, 13.7, 34.1, 68.3, 136.5 μM) in a 96-microtitre plate and incubated for 24 h with constant shaking. […] Absorbance at 600 nm was detected every 3 h up to 24 h to obtain the growth curves. The minimal inhibition concentration (MIC) was defined as the lowest concentration of an antimicrobial agent that could inhibit the growth of bacteria after overnight incubation."}, "[2]": {"system": "Staphylococcus aureus ATCC 29213", "assay_type": "cell-based", "experimental": "as §5, §6"}, "[3]": {"system": "Aeromonas hydrophila ATCC 49140", "assay_type": "cell-based", "experimental": "as §5, §6"}, "[4]": {"system": "Vibrio alginolyticus ATCC 33840", "assay_type": "cell-based", "experimental": "as §5, §6"}, "[5]": {"system": "E. cloacae BAA-1143", "assay_type": "cell-based", "experimental": "as §5, §6"}, "[6]": {"system": "Acinetobacter baumannii ATCC 19606", "assay_type": "cell-based", "experimental": "as §5, §6"}, "[7]": {"system": "Escherichia coli ATCC 10536", "assay_type": "cell-based", "experimental": "as §5, §6"}, "[8]": {"system": "Escherichia coli BL21 (DE3)", "assay_type": "cell-based", "experimental": "as §5, §6"}, "[9]": {"system": "Multidrug-resistant S. aureus ATCC BAA-44", "assay_type": "cell-based", "experimental": "as §5, §6"}, "[10]": {"system": "Pseudomonas aeruginosa A", "assay_type": "cell-based"}, "[11]": {"system": "panel of Gram-positive and Gram-negative bacteria", "assay": "Antibacterial activity against a panel of bacteria (summary)", "assay_type": "cell-based", "details": "including beta-lactam resistant bacteria", "experimental": "The antibacterial activity of the Peptide A against a panel of Gram-positive and Gram-negative bacteria (FIG. 5A, 5B and Table 2) was determined.\nas §6"}, "[12]": {"system": "Gram positive (S. aureus) and negative (E. coli) bacteria", "assay": "Toxicity screen of synthesized shortlisted SCPs against bacteria", "assay_type": "cell-based", "details": "synthesized peptides", "description": "Of the remaining SCPs, 1519 (24%) satisfy the CAMP prediction algorithm for AMPs as potential AMPs (FIG. 3). In order to increase the accuracy of prediction, the inventors further limited the shortlisted AMPs to amphipathic and cationic peptides, since they account for the majority of currently known AMPs. There are 430 peptides from the SCP database that satisfied these criteria. To assess the accuracy of the AMP prediction, the inventors synthesized 53 of the shortlisted SCPs and tested their toxicity against both Gram positive (S. aureus) and negative (E. coli) bacteria."}, "[13]": {"system": "CpxR", "assay": "Quantitative real-time PCR", "assay_type": "cell-based", "details": "E. tarda", "description": "(§1) Results are expressed as 2^(−Delta Delta C (T)). […] Results are expressed as 2^(−Delta Delta C (T)).\n(§2) Each group has 6 biological replicates. […] Gene-specific primers were designed with Primer-BLAST (NCBI)."}, "[14]": {"system": "RpoE", "assay": "Quantitative real-time PCR", "assay_type": "cell-based", "details": "E. tarda, 6.8 μM, 1 hr", "description": "as §1, §2"}, "[15]": {"system": "CpxR", "assay": "Quantitative real-time PCR", "assay_type": "cell-based", "details": "E. coli", "description": "as §2"}, "[16]": {"system": "six mammalian cell lines (HeLa, MDA-MB, MC3T3, MCF7, H1299, and AG06858)", "assay": "In vitro toxicity, 48 hour MTT assay", "assay_type": "cell-based, Human; Mouse", "details": "concentrations close to the MIC for gram-negative bacteria", "method": "(§3) FIG. 11A is a plot showing the effect of Peptide A on viability of cultured mammalian cells, incubated for 48 h in the presence of Peptide A at different concentrations (μg/ml), as determined by MTT assay. Cell viability represented as peptide treated cell numbers over medium-only control. Statistically significant difference as compared to controls (*: p<0.05, **: p<0.01, n=4). FIG. 11B is a plot showing the ability of Peptide A to protect medaka from lethal challenge of E. tarda ([…]). Medaka was injected with 1 μl of Peptide A (0.68 mM), with 1 μl of E. tarda (10^7 CFU/ml) and Peptide A (0.68 mM) mixture, or with E. tarda alone (1 μl of E. tarda:10^7 CFU/ml). […] 20 fish per group. Log-rank (Mantel-Cox) test was applied for the comparison of survival curves (**: p<0.01).\nMammalian cell lines (Hela, MDA MB, MC3T3, MCF7, H1299, and AG06858) were seeded into 96 well-plates one day before treatment at a density of 3×10^5 cells/ml for a 48 hour MTT assay. The peptides were directly dissolved in the medium to make a 136.5 μM stock. […] The resulting solution was measured by using a microplate reader (BMG Polarstar Optima) at a wavelength of 570 nm. The optical density (OD) values were recorded and cell viability was calculated based on the OD readings normalized to the untreated cells."}, "[17]": {"assay": "Toxicity in adult Medaka fish, intraperitoneal injection", "assay_type": "in vivo", "details": "intraperitoneally injected with 1 μg, up to 14 days", "method": "as §3\n(§4) The efficacy of the synthesized AMP to protect medaka against infection was characterized using host resistance assays with intraperitoneal (i.p.) injection of bacteria using a micro-injection machine (PV820 Pneumatic PicoPump). […] The number of dead fish was counted on a daily basis until two weeks after the injections."}, "[18]": {"system": "E. tarda", "assay": "Host resistance assay, Experiment One: co-injection of bacteria and peptide", "assay_type": "in vivo, Medaka", "details": "co-injected with Peptide A (0.68 mM, 1 μl) and E. tarda", "method": "as §3, §4"}, "[19]": {"system": "CpxA", "details": "E. tarda, 6.8 μM, 1 hr", "experimental": "FIG. 9B is a plot showing the relative expression levels of CpxA, CpxR and RpoE in E. tarda upon treatment with Peptide A for 60 min at 6.8 μM. Results are expressed as 2^(−Delta Delta C (T)). FIG. 9C is a plot showing the CpxR gene expression in E. tarda after treatment with Peptide A (6.8 μM), Piscidin (7.5 μM), Ampicillin (143 μM) and Peptide A+Ampicillin (3.4 μM; 71.5 μM) for 1 hour. Results are expressed as 2^(−Delta Delta C (T)). […] Results expressed as log 2 fold change normalized with control group.\nE. tarda or E. coli were treated with AMP or antibiotics or not treated as the control at inhibitory or subinhibitory for 1 hr. After that, the total RNA of the cells were collected by using the RNAprep pure cell/bacteria kit (TIANGEN), then reverse-transcribed into cDNA by using the One-Step FastQuant RT reagent kit with gDNase (TIANGEN). 18S ribosomal RNA (18S) was used as reference gene for qPCR normalization. Each group has 6 biological replicates. In brief, quantitative polymerase chain reaction (qPCR) assays were performed by using fluorescent dye powder SYBR Green PCR Master Mix and the ABI 7500 System. Gene-specific primers were designed with Primer-BLAST (NCBI). […] The relative expression levels (fold change) of the tested genes were calculated by using the relative expression based on the 2^(−Delta Delta C (T)) Method."}}, "note": "Entries after “also recorded” stand apart in the source; their conditions may differ. Peptide text beside a SMILES is read from it.", "data": [{"smiles": "CC[C@H](C)[C@H](N)C(=O)N[C@@H](CCCNC(=N)N)C(=O)N[C@H](C(=O)N[C@H](C(=O)N[C@@H](CC(C)C)C(=O)N[C@@H](CCCNC(=N)N)C(=O)N[C@@H](C)C(=O)N[C@@H](CCC(N)=O)C(=O)NCC(=O)N[C@@H](C)C(=O)N[C@@H](CC(C)C)C(=O)N[C@@H](CCCCN)C(=O)N[C@H](C(=O)O)[C@@H](C)CC)[C@@H](C)CC)[C@@H](C)CC", "note": "[Peptide A, IRIILRAQGALKI] (H-IRIILRAQGALKI-OH; N-terminus and C-terminus assumed)", "values": [{"measurement": "MICs", "setting": "[1]", "value": 13.7, "unit": "µM"}, {"measurement": "MICs", "setting": "[2]", "value": 64, "unit": "µM"}, {"measurement": "MICs", "setting": "[3]", "value": 13.7, "unit": "µM"}, {"measurement": "MICs", "setting": "[4]", "value": 34.1, "unit": "µM"}, {"measurement": "MICs", "setting": "[5]", "value": 21.8, "unit": "µM"}, {"measurement": "MICs", "setting": "[6]", "value": 6.8, "unit": "µM"}, {"measurement": "MICs", "setting": "[7]", "value": 3.4, "unit": "µM"}, {"measurement": "MICs", "setting": "[8]", "value": 5.5, "unit": "µM"}, {"measurement": "MICs", "setting": "[9]", "value": 21.8, "unit": "µM"}, {"measurement": "MICs", "setting": "[10]", "value": 34.1, "unit": "µM"}, {"measurement": "effect on antibiotic resistant strains", "setting": "[11]", "value": "effective on a number of antibiotic resistant strains"}, {"measurement": "toxicity / antimicrobial activity against bacteria", "setting": "[12]", "value": "demonstrated toxicity against both Gram positive and negative bacteria"}, {"measurement": "CpxR mRNA expression", "setting": "[13]; Peptide A 6.8 μM, 1 hr", "value": "significantly reduced"}, {"measurement": "CpxR expression induced by ampicillin", "setting": "[13]; Peptide A+Ampicillin (3.4 μM; 71.5 μM), 1 hour", "value": "revert the induction of CpxR expression"}, {"measurement": "RpoE mRNA expression", "setting": "[14]", "value": "significantly induced"}, {"measurement": "CpxR expression", "setting": "[15]", "value": "inhibition of CpxR"}, {"measurement": "cytotoxic effect (cell viability, MTT)", "setting": "[16]", "value": "No obvious toxicity; also recorded: relatively nontoxic"}, {"measurement": "adverse effect", "setting": "[17]", "value": "no adverse effect"}, {"measurement": "medaka survival rate", "setting": "[18]", "value": 80, "unit": "%"}, {"measurement": "CpxA mRNA expression", "setting": "[19]", "value": "remains unaffected"}]}]}
